The values below come from PMC7694948, “Mitochondrial Targeting in an Anti-Austerity Approach Involving Bioactive Metabolites Isolated from the Marine-Derived Fungus Aspergillus sp” (Marine Drugs, 2020).

Test [1] deals with human pancreatic carcinoma PANC-1 cells. Description: Cytotoxicity against PANC-1 cells under glucose-deficient or general culture conditions (WST-8). The class given is cell-based. Particulars: for IC50: Homo sapiens, 12 h treatment, WST-8. How it is done:
PANC-1 cells were maintained in DMEM supplemented with heat-inactivated 10% FBS and kanamycin (50 µg/mL) and grown at 37 °C in a 5% CO2 atmosphere. […] The general culture medium—that is, basal medium containing 10% FBS and […] glucose (final concentration, 25 mM)—was used for comparison. The assay was performed as previously described. Briefly, PANC-1 cells (1 × 10^4 cells/100 µL in 96-well plastic plates) were preincubated in DMEM containing 10% FBS for 24 h. The medium was then changed with either the general glucose medium or glucose-deficient medium to induce adaption to nutrient starvation. After 12-h incubation, serially diluted samples were added to the media. Then, the cells were incubated for an additional 12 h at 37 °C in a 5% CO2 atmosphere. Cell proliferation was identified using WST-8. The IC50 values were determined by linear interpolation of the growth inhibition curve. We assessed the selectivity of the antiproliferative activity (S.I.) on the basis of the difference in the IC50 values for the general culture and glucose-deficient media.
For orientation: Tetrazolium assays rely on reduction of a dye to a coloured formazan, in cell work by metabolically active cells.

Test [2] has as its target Mitochondrial complex III (coenzyme Q cytochrome c oxidoreductase) (Bos taurus, UniProt P00125+P00157+P13272). Description: MitoCheck Complex Activity Assay, complex III. The class given is biochemical, bovine. How it is done: (§1) The inhibitory activity of compound 1 on the mitochondrial electron transport chain (complexes I–V) was analyzed using MitoCheck Complex Activity Assay kits (Cayman Chemical) following the manufacturer’s instructions. The kits measured the enzymatic activity of each complex derived from bovine heart mitochondria in the following systems: Mitochondrial complex I (NADH oxidase/coenzyme Q reductase) activity was determined by measuring the decrease in NADH oxidation, which is reflected by a decrease in absorbance at 340 nm. Mitochondrial complex II (succinate dehydrogenase/coenzyme Q reductase) activity was assessed on the basis of the reduction rate of 2, 6-dichlorophenolindophenol (protonated by reduced coenzyme Q), which is reflected by a decrease in absorbance at 600 nm. Mitochondrial complex III (coenzyme Q cytochrome c oxidoreductase) activity was determined on the basis of the cytochrome c reduction rate, which is reflected by an increase in absorbance at 550 nm. Mitochondrial complex IV (cytochrome c oxidase) activity was determined by measuring the cytochrome c oxidation rate, which is reflected by a decrease in absorbance at 550 nm. Mitochondrial complex V (F1F0 ATP synthase) activity was determined by the NADH oxidation rate, which can be monitored at 340 nm.

For test [3], the system named is oxygen consumption by PANC-1 cells. Further details: method as in PMID 32002808, PMID 26204821. To be noted: cited from earlier work.
Test [4] addresses T1, Mitochondrial complex II (succinate dehydrogenase/coenzyme Q reductase) (Bos taurus, UniProt P31039+P35720+Q3T189+Q95123).
T1 construct: enzymatic activity of each complex derived from bovine heart mitochondria; purchased Cayman Chemical; host or cells: bovine heart mitochondria (tissue-derived, supplied in kit)
Description: MitoCheck Complex Activity Assay, complex II. The class given is biochemical, bovine. Particulars: bovine heart mitochondria. How it is done: as §1

T1 sequence (P31039 44-665): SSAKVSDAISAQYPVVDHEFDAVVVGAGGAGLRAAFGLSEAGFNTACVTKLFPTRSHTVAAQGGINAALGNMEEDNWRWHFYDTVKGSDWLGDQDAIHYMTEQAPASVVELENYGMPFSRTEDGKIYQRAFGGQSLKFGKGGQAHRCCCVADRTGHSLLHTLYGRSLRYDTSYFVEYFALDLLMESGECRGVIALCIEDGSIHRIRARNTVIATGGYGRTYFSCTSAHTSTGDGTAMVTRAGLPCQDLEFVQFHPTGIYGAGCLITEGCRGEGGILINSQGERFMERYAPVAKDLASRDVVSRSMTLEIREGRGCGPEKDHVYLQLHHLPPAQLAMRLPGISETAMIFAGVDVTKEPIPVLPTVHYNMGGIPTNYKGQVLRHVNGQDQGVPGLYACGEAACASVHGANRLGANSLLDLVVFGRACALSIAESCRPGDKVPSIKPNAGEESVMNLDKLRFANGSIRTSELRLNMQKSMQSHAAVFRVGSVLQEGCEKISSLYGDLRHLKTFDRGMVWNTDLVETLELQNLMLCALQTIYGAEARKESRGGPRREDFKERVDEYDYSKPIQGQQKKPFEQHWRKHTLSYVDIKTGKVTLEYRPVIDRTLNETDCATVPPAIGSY
T1 sequence (Q3T189 29-280): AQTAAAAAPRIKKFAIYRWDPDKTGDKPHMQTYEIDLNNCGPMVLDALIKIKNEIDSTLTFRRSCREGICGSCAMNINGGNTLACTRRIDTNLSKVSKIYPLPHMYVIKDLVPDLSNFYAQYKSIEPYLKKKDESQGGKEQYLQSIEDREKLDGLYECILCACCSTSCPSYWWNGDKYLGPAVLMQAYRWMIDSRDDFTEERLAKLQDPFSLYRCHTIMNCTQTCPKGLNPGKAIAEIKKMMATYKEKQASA
T1 sequence (P35720 30-169): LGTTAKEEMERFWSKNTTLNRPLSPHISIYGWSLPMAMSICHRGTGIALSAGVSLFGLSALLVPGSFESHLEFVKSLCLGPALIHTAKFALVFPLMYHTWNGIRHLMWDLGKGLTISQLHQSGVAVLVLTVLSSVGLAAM
T1 sequence (Q95123 56-158): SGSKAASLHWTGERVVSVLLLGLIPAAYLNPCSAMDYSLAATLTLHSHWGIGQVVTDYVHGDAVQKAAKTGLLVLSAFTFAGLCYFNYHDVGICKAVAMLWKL
Chain of Mitochondrial complex III (coenzyme Q cytochrome c oxidoreductase) (P00125 85-325): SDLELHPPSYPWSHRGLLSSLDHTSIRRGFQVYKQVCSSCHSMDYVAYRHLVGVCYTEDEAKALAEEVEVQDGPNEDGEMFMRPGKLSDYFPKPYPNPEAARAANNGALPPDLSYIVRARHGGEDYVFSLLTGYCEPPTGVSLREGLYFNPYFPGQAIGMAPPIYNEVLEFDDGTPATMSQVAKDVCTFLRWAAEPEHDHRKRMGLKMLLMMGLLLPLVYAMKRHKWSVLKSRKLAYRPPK
Chain of Mitochondrial complex III (coenzyme Q cytochrome c oxidoreductase) (P00157 whole entry): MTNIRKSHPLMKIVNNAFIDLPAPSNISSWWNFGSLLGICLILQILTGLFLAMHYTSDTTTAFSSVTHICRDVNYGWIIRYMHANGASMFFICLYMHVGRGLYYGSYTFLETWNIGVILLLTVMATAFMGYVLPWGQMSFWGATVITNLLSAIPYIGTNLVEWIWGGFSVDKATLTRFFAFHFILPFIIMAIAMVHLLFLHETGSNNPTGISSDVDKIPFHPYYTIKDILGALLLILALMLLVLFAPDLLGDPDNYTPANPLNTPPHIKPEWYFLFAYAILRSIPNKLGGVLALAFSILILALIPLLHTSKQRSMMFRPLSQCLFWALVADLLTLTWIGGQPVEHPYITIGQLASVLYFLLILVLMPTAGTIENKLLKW
Chain of Mitochondrial complex III (coenzyme Q cytochrome c oxidoreductase) (P13272 whole entry): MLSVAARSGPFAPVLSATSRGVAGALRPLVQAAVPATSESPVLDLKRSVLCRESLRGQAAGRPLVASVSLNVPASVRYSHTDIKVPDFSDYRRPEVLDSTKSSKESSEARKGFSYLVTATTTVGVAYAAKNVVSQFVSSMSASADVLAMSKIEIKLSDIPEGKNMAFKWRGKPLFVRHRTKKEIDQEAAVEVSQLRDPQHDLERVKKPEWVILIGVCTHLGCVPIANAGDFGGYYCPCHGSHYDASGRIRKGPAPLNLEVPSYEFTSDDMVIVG

Broadly, the IC50 is the midpoint of a concentration-inhibition curve. Regarding `CCCCCC[C@H]1C(=O)O[C@H](C)[C@H](NC(=O)c2cccc(NC=O)c2O)C(=O)O[C@@H](C)[C@@H]1OC(=O)CC(C)C` [Antimycin A, reference compound], the IC50 in test [1] (PANC-1, general glucose medium) is 288 ± 0.5 µM; in test [1] (PANC-1, glucose-deficient medium, 12 h adaptation), 0.0003 µM; in test [2], 0.03 ± 0.01 µM. Also, the “S.I. (selectivity index)” value in test [1] (difference in IC50 values for general culture and glucose-deficient media) is given as 960,000. Moreover, the “effect on oxygen consumption” value in test [3] was “reduces oxygen consumption”.

`N#CC(C#N)=NNc1cccc(Cl)c1` [CCCP, carbonyl cyanide m-chlorophenylhydrazone]: the “effect on oxygen consumption” value in test [3] is “increase the oxygen consumption”.

Consider `COC(=O)[C@@]12Oc3ccc(-c4ccc5c(c4O)C(O)C4=C(O)C[C@H](C)[C@@H](O)[C@]4(C(=O)OC)O5)c(O)c3C(=O)C1=C(O)C[C@H](C)[C@H]2O` (some centres unmarked) [secalonic acid D], for which, in test [3], the “effect on oxygen consumption” value was “increase the oxygen consumption”.

In test [4], `O=C(CC(=O)C(F)(F)F)c1cccs1` [thenoyltrifluoroacetone, reference compound] showed a half-maximal inhibitory concentration (IC50) of 68 ± 0.01 µM.
